# Test results taken from patent US11028061B2, “Modulators of myocyte lipid accumulation and insulin resistance and methods of use thereof” (Sanford Burnham Prebys Medical Discovery Institute, priority 2015, dated 2021).
# Legend:
# [1] = system: primary murine skeletal myocytes; assay: TAG accumulation in primary murine skeletal myocytes; assay type: cell-based; conditions: Mus musculus; primary murine skeletal myocytes; read-out: Activity Score (IC50), triacylglyceride (TAG) accumulation
# human skeletal myotubes [2] = assay: Cellular glucose uptake assay ([3H]-2-deoxyglucose); assay type: cell-based; conditions: 10 μM SBI-477, 24 hours
# Description: After differentiation, primary human skeletal myotubes were incubated with the indicated concentration of SBI-477 for 24 hours and then treated with insulin (100 nM) for 30 minutes. Cells were washed in phosphate-buffered saline (PBS) three times at room temperature and then incubated with Krebs-Ringer HEPES buffer (140 mM NaCl, 5 mM KCl, 1 mM CaCl2, 2.5 mM MgSO4, 2.5 mM, NaH2PO4, 20 mM HEPES and 0.1% bovine serum albumin) containing [3H]-2-deoxyglucose (1.0 μCi/mL) for 15 min. Glucose uptake was terminated by washing five times with ice-cold PBS. The cells were then solubilized with 0.5N sodium hydroxide (NaOH). The amount of [3H]-2-deoxyglucose taken up was measured by liquid scintillation analyzer (PerkinElmer) and normalized to total protein.
# SCD-1 = SCD-1 (Homo sapiens, UniProt O00767); assay: Direct inhibition of SCD-1 activity; assay type: biochemical; conditions: data not shown
# DGAT1/2 = assay: Direct inhibition of DGAT1/2 activity; assay type: biochemical; conditions: data not shown
# H9c2 myotubes = assay: Glycogen synthesis in H9c2 myotubes; assay type: cell-based, Rat
# human skeletal myotubes [3] = assay: Glycogen synthesis assay in human skeletal myotubes; assay type: cell-based; conditions: 24 hours
# Description: Human skeletal myotubes were incubated with or without SBI-477 and then treated with or without insulin (100 nM) for 30 minutes. Glycogen synthesis rates were then measured as described (Halse, et al., J Biol Chem. 1999; 274(2):776-780). Briefly, differentiated primary human skeletal myotubes were treated with SBI-477 as described in the glucose uptake assay. Following incubation with SBI-477, cells were serum starved in α-MEM for 1 hour. The medium was replaced with α-MEM supplemented with [14C]-D-glucose (1 μCi/mL) for three hours and then treated in the absence or presence of insulin (100 nM) for 30 minutes. After incubation, the cells were washed three times with ice-cold PBS and then lysed in 30% potassium hydroxide (KOH) containing 6 mg/mL glycogen. For glycogen precipitation, the samples were added to ice-cold 100% ethanol for 18 hours at 4° C. The samples were centrifuged at 8,500×g for 10 minutes at 4° C. and the supernatant was discarded. After one wash with 75% ethanol, the glycogen precipitate was dissolved in distilled water. [14C]-D-glucose incorporated to glycogen was counted by liquid scintillation analyzer (PerkinElmer) and normalized to total protein.
# S6K = assay: Western blot of pS6K (T389); assay type: cell-based, human; conditions: 24 hours
# Description: (§1) FIGS. 3D and G show SBI-477-mediated increase in glucose uptake in oleate-loaded skeletal myotubes (FIG. 3D) SBI-477 increases glucose uptake in oleate-loaded human skeletal myotubes. Basal and insulin-stimulated [3H]2-DG uptake was measured in human skeletal myotubes following treatment with SBI-477 for 24 hours in the presence of 100 μM oleate or BSA as a control. *p<0.05 vs. vehicle, †p<0.05 vs. vehicle/insulin by one-way ANOVA with Bonferroni post hoc test. FIG. 3G—Western blot analysis (left) of human myotubes treated with SBI-477 for 24 hours was performed to determine activation of S6K and AMPK using the indicated phospho-specific antibodies. Insulin treatment (100 nM) for 30 minutes was used as positive control. Quantitation (right) of the Western blot data is shown (n=4-5). *p<0.05 vs. Vehicle by one-way ANOVA with Bonferroni post hoc test. The data represent mean±SD.
# (§2) Cells were lysed in the RIPA buffer containing 1% NP-40, 5 mM Na4P2O7, 1 mM EDTA, 20 mM NaF, 2 mM Na3VO4, 1× cOmplete™ protease inhibitor (Roche) and 1 mM phenylmethylsulfonyl fluoride. Whole cell lysates were subjected to SDS-PAGE and transferred to a nitrocellulose membrane. The blots were hybridized with specific antibodies and developed with enhanced chemiluminescence kit (Pierce). […] Protein quantification was performed using FluorChemQ (Alpha Innotech) and normalized to […]-actin or total protein where indicated.
# AMPK = assay: Western blot of AMPK activation; assay type: cell-based, human; conditions: 24 hours
# Description: as §1, §2
# MondoA = target: T1, MondoA (Homo sapiens, UniProt Q9HAP2); assay: Intracellular localization of MondoA (immunolocalization); assay type: cell-based; conditions: human skeletal myoblasts; data not shown
# T1 construct: endogenous in cells; host or cells: human skeletal myoblasts
# Description: The activity of ChREBP and MondoA is governed, in part, by nuclear-cytoplasmic shuttling mechanisms that are incompletely understood but likely involve glucose metabolites and phosphorylation (Stoltzman, et al., Proc Natl Acad Sci USA. 2008; 105(19):6912-6917; Filhoulaud, et al., Trends Endocrinol Metab. 2013; 24(5):257-268). Accordingly, the effect of SBI-477 on intracellular localization of MondoA was assessed. […] The results of immunoblotting studies conducted with fractionated cellular extracts further supported this conclusion (FIG. 5D).
# T1 sequence (Q9HAP2 whole entry): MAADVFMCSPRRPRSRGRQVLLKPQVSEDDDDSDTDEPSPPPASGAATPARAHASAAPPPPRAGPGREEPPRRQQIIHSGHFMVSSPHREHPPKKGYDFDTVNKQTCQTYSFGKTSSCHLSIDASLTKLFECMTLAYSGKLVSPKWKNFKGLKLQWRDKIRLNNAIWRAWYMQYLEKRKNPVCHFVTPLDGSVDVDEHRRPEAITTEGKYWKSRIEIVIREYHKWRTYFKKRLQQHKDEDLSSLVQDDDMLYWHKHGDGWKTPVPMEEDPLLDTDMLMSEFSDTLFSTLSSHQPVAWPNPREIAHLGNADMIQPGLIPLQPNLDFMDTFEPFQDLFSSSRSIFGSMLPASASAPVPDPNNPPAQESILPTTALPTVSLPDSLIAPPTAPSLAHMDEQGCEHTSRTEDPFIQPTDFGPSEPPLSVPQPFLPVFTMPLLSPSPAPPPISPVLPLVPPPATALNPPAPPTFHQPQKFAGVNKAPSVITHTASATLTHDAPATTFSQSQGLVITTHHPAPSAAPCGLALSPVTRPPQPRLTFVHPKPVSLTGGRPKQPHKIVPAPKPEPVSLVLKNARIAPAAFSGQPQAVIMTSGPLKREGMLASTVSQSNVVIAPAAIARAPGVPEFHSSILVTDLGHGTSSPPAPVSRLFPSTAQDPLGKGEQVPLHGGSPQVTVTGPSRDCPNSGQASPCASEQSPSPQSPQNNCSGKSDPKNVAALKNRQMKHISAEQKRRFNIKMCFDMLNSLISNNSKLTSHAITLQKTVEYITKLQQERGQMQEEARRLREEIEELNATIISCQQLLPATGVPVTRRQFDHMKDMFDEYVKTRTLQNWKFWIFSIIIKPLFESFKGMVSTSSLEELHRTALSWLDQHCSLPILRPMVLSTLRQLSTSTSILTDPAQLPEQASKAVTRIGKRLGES
# Sequence of SCD-1 (O00767 whole entry, species assumed): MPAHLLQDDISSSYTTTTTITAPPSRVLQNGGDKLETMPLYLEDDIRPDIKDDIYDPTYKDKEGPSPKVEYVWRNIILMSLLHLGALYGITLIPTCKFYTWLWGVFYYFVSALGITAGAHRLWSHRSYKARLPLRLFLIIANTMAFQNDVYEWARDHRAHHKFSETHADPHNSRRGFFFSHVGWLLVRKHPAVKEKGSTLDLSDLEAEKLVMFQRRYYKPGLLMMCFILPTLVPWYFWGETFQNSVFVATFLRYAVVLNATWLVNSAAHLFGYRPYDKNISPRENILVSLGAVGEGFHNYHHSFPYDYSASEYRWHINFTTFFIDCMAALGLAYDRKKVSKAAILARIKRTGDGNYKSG
compound,measurement,setting,value
"COc1ccc(-c2csc(NC(=O)c3ccc(OCC(=O)N4CCOCC4)c(OC)c3)n2)cc1 [Cpd. 7, 3-methoxy-N-(4-(4-methoxyphenyl)thiazol-2-yl)-4-(2-morpholino-2-oxoethoxy)benzamide]",IC50,[1],< 1 µM
same,Increase of basal and insulin stimulated glucose uptake,human skeletal myotubes [2],approximately 84%
same,Direct inhibition of SCD-1 activity,SCD-1,not found that SBI-477 directly inhibits
same,Direct inhibition of DGAT1/2 activity,DGAT1/2,not found that SBI-477 directly inhibits
same,Insulin-stimulated glycogen synthesis compared to vehicle,H9c2 myotubes,increased insulin-stimulated glycogen synthesis
same,Glycogen synthesis rates,human skeletal myotubes [3],enhanced by SBI-477 treatment in a dose dependent manner
same,Levels of pS6K (T389),S6K,reduced
same,AMPK activation,AMPK,activation of AMPK
same,Nuclear localization of MondoA,MondoA,near complete nuclear exclusion of MondoA
